Laboratory results: patent publication US7736624B2, “Methods and compositions for diagnostic and therapeutic targeting of COX-2” (priority 2006, dated 2010)
Where two headings read alike, the source gives them in different places.

Experiments:
1483 HNSCC cells = experiment: In vitro metabolism study (esterase hydrolysis) with 1483 HNSCC cells, RP-HPLC; assay type: in vitro ADME; settings: up to 24 hours
Experimental: (§1) An in vitro metabolism study was performed with Compound 27i using 1483 HNSCC cells to check the enzymatic (esterase) hydrolysis of the conjugate and identify metabolites up to 24 hours (h).

[1] = as above; assay type: in vitro ADME; settings: human, read-out: t1/2, disappearance of the parent conjugate (converted)
Experimental: as §1

ovine COX-1 = molecular target: T1, ovine COX-1 (Ovis aries, UniProt P05979); experiment: IC50 determinations using purified enzymes (TLC assay), COX-1; assay type: biochemical; settings: Table 1; assayed against purified enzymes
T1 construct: can be purified from ovine seminal vesicles by standard procedures; from tissue; host or cells: ovine seminal vesicles
T1 sequence (P05979 25-600): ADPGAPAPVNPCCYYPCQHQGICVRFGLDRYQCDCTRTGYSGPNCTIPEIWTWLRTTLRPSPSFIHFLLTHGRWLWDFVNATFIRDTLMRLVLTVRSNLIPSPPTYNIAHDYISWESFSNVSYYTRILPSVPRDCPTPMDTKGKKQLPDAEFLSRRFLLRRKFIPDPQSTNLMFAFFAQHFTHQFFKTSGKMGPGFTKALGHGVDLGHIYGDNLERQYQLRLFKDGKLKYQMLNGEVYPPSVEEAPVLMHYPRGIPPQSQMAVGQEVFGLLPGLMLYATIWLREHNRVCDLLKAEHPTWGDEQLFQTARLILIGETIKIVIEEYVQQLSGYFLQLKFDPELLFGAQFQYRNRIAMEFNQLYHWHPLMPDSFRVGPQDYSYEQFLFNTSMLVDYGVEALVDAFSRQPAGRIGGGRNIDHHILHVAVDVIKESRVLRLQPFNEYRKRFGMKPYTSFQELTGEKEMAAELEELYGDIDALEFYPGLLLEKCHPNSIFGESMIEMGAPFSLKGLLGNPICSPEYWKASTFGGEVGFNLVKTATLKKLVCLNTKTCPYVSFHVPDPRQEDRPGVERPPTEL

COX-2 [2] = molecular target: T2, COX-2 (Homo sapiens, UniProt P35354); experiment: IC50 determinations using purified enzymes (TLC assay), COX-2; assay type: biochemical; set-up: made in house; host or cells: Sf9 insect cells; settings: purified enzyme; read-out: COX-2 IC50
T2 sequence (P35354 18-604): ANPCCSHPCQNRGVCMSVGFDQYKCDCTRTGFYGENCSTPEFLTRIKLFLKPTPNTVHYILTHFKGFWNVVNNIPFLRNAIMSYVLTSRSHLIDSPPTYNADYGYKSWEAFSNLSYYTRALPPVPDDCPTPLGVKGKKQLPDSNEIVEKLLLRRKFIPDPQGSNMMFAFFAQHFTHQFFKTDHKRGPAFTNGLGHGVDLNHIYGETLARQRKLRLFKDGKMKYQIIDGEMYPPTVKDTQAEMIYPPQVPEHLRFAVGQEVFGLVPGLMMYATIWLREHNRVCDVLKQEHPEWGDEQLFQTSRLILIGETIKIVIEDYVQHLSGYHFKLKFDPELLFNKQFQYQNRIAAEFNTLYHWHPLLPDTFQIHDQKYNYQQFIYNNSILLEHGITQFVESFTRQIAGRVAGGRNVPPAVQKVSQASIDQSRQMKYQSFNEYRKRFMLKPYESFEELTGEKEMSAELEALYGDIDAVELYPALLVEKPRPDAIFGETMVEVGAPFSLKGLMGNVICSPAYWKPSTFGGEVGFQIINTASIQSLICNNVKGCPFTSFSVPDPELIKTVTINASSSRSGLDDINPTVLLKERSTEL

COX-1 [3] = settings: literature; cited from earlier work
COX-2 [4] = molecular target: T2, COX-2; set-up: 1483 Head/Neck Squamous Cell Carcinoma Cells (Sacks et al. (1988) Cancer Res 48, 2858-2866), which express COX-2; endogenous in cells; host or cells: 1483 HNSCC cells; settings: literature; cited from earlier work
COX-1 [5] = molecular target: T3, COX-1 (Ovis aries, UniProt P05979); settings: literature; cited from earlier work
T3 sequence (P05979 25-600): T1 sequence (P05979 25-600)

**Q.** With COc1ccc2c(c1)c(CC(=O)NCCOC(=O)\C=C(C)/C=C/C=C(C)/C=C/C1=C(C)CCCC1(C)C)c(C)n2C(=O)c1ccc(Cl)cc1 [Compound 27i] as the compound, how does the parent conjugate remained (1483 HNSCC cells) read?
**A.** Its parent conjugate remained is 25%.

**Q.** And the half-life [1]?
**A.** The half-life was 5.5 h.

**Q.** And the IC50 (ovine COX-1)?
**A.** Its IC50 is greater than 4 µM.

**Q.** What about the IC50 (COX-2 [2]) of the same compound?
**A.** Its IC50 is 0.107 µM.

**Q.** For COc1ccc2c(c1)c(CC(=O)O)c(C)n2C(=O)c1ccc(Cl)cc1 [Indomethacin, indomethacin], which “potency as ligand of COX-1 relative to COX-2” value (COX-1 [3]) is on record?
**A.** The value was “approximately 15 fold”.

**Q.** With O=C(c1ccccc1)c1ccc2n1CCC2C(=O)NCc1ccc(F)cc1 (centres unmarked) [p-fluorobenzylamide of ketorolac] as the compound, how does the IC50 (COX-2 [4]) read?
**A.** The IC50 was 0.08 µM.

**Q.** What about the IC50 (COX-1 [5]) of the same compound?
**A.** The IC50 was greater than 65 µM.

**Q.** For COc1ccc2c(c1)c(CC(=O)Nc1ccc(F)cc1)c(C)n2C(=O)c1ccc(Cl)cc1 [p-fluorophenylamide of indomethacin, indomethacin-N-(4-fluorophenyl)amide], which IC50 (COX-1 [5]) is on record?
**A.** Its IC50 is greater than 66 µM.
